Read-outs that look alike come from different tables or passages of the source.
Target: T1, human GPR119 (Homo sapiens, UniProt Q8TDV5)
T1 sequence (Q8TDV5 1-335): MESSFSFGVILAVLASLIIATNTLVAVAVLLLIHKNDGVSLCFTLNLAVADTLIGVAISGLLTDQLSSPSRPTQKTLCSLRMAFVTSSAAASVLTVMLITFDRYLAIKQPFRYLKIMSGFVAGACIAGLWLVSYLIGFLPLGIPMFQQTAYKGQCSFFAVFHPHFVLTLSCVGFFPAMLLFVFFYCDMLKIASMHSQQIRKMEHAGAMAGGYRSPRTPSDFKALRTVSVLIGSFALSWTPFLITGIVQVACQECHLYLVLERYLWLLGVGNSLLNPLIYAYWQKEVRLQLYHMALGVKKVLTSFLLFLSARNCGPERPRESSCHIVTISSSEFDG
Experiment: Intracellular cAMP increase in human GPR119 introduced cells (Pharmacological Experiments 1 and 2)
Type: cell-based
Conditions: for GPR119 agonist effect: result in words, refers to Tables 12 and 13
Excerpt: The GPR119 agonist effect is studied by measuring the effect of an analyte on increase of intracellular amount of cAMP in human GPR119 introduced cells. The testing method is described below.
Human GPR119 gene (NM 178471) is purchased from ATCC (ATCC No. 10807349), and is amplyfied according to PCR to form BamHI site at 5′ side and Apa I site at 3′ side. The forward side primer is […] (sequence No. 1), and the reverse side primer is […] (sequence No. 2). The PCR conditions are described below.
(§1) The double-stranded DNA is thermally denatured using a DNA polymerase (KOD-Plus-Ver. 2; TOYOBO #KOD-211) at 98° C. for 10 seconds in one cycle. The denatured single-stranded DNA is annealed with the primers at 55° C. for 30 seconds. The DNA is subjected to an extension reaction at 68° C. for 1 minute and 15 seconds. The above-mentioned steps are repeated in 35 cycles. The PCR product is inserted into pcDNA5/FRT/TO (Invitrogen #V6520-20) plasmid. Flp-in T-Rex-293 cells (Invitorogen #R78007) are transfected with the obtained plasmid. The method of transfection is conducted in accordance with the protocol of the product.
The stable cell line expressing human GPR119 prepared in the above-mentioned method is plated on a 96-well plate at the concentration of 2,500 cells/well using Dulbecco's Modified Eagle Medium (DMEM) containing 10% fetal bovine serum (FBS). Twenty-four hours after plating, tetracyclin (Invitrogen #Q10019) is added at the final concentration of 20 ng/mL to induce hGPR119 gene expression. Twenty-four hours after, the medium is removed, and the cells are stimulated with an assay buffer (0.5 mM IBMX PBS(−)) containing the test compound at 37° C. for 30 minutes. The amount of the intracellular cAMP is measured using a commercially available kit (HitHunter™ cAMP XS+ Assay: GE Healthcare #90007503) and a reader (FLUOstar Optima: BMG LABTECH). The test compound is dissolved in 100% DMSO, and added at the final concentration of 1%.
Human GPR119 gene (NM 178471) was purchased from ATCC (ATCC No. 10807349), and is amplyfied according to PCR to form BamHI site at 5′ side and Apa I site at 3′ side. The primers were […] (sequence No. 1) and […] (sequence No. 2). The PCR conditions are described below.
as §1, with “was” for “is”, “were” for “are”
The stable cell line expressing human GPR119 prepared in the above-mentioned method was plated on a 96-well plate at the concentration of 2,500 cells/well using Dulbecco's Modified Eagle Medium (DMEM) containing 10% fetal bovine serum (FBS). Twenty-four hours after plating, tetracyclin (Invitrogen #Q10019) was added at the final concentration of 20 ng/mL to induce hGPR119 gene expression. Twenty-four hours after, the medium was removed, and the cells were stimulated with an assay buffer (0.5 mM IBMX PBS (−)) containing the test compound at 37° C. for 30 minutes. The amount of the intracellular cAMP was measured using a commercially available kit (HitHunter™ cAMP XS+ Assay: GE Healthcare #90007503) and a reader (FLUOstar Optima: BMG LABTECH). The test compound was dissolved in 100% DMSO, and added at the final concentration of 1%.
The examination was performed by the method similar to Example 61 Pharmacological experiment 1-(1), 1-(2).

[1] = Table 12, Flp-in T-Rex-293 cells stably expressing hGPR119, intracellular cAMP, 37° C. for 30 minutes, read-out: EC50
[2] = Table 13, Pharmacological experiment 2, method similar to Example 61, read-out: EC50

| Compound | EC50 [nM] | also measured |
| --- | --- | --- |
| CC(C)(C)OC(=O)N1CCC(c2cnc(COc3ccc(S(C)(=O)=O)cc3)nc2)CC1 [Example 1, tert-Butyl 4-[2-(4-methanesulfonylphenoxymethyl)pyrimidin-5-yl]piperidine-1-carboxylate] | – | EC50 [1]: 313 nM |
| CC(C)(C)OC(=O)N1CC=C(c2cnc(COc3ccc(S(C)(=O)=O)cc3)cn2)CC1 [Example 2, tert-Butyl 4-[5-(4-methanesulfonylphenoxymethyl)pyrazin-2-yl]-3,6-dihydro-2H-pyridine-1-carboxylate] | 76.5 | – |
| CC(C)(C)OC(=O)N1CCC(c2cnc(COc3ccc(S(C)(=O)=O)cc3)cn2)CC1 [Example 3, tert-Butyl 4-[5-(4-methanesulfonylphenoxymethyl)pyrazin-2-yl]piperidine-1-carboxylate] | 74.6 | – |
| CC(C)(C)OC(=O)N1CCC(c2cnc(Cn3ccc4cc(S(C)(=O)=O)ccc43)nc2)CC1 [Example 4, tert-Butyl 4-[2-(5-methanesulfonylindol-1-ylmethyl)pyrimidin-5-yl]piperidine-1-carboxylate] | 62.4 | – |
| CC(C)(C)OC(=O)N1C2C=C(c3cnc(COc4ccc(S(C)(=O)=O)cc4)cn3)CC1CC2 (centres unmarked) [Example 10, tert-Butyl 3-[5-(4-methanesulfonylphenoxymethyl)pyrazin-2-yl]-8-azabicyclo[3.2.1]oct-2-ene-8-carboxylate] | 99.8 | – |
| CC(C)(C)OC(=O)N1C2CCC1CC(c1cnc(COc3ccc(S(C)(=O)=O)cc3)cn1)C2 (centres unmarked) [Example 11, tert-Butyl 3-[5-(4-methanesulfonylphenoxymethyl)pyrazin-2-yl]-8-azabicyclo[3.2.1]octane-8-carboxylate] | 67.3 | – |
| CC(C)(C)OC(=O)N1CC=C(c2cnc(COc3ccc(-n4cnnn4)cc3F)cn2)CC1 [Example 12, tert-Butyl 4-[5-[2-fluoro-4-(tetrazol-1-yl)phenoxymethyl]pyrazin-2-yl]-3,6-dihydro-2H-pyridine-1-carboxylate] | 56.4 | – |
| CC1CN(C(=O)OC(C)(C)C)CC=C1c1cnc(Cn2ccc3cc(S(C)(=O)=O)cnc32)cn1 (centres unmarked) [Example 15, tert-Butyl 4-[5-(5-methanesulfonyl-1H-pyrrolo[2,3-b]pyridin-1-ylmethyl)pyrazin-2-yl]-3-methyl-3,6-dihydro-2H-pyridine-1-carboxylate] | – | EC50 [1]: 126 nM |
| CC1CN(C(=O)OC(C)(C)C)CC=C1c1cnc(COc2ccc(-n3cncn3)cc2)cn1 (centres unmarked) [Example 17, tert-Butyl 3-methyl-4-[5-[4-(1,2,4-triazol-1-yl)phenoxymethyl]pyrazin-2-yl]-3,6-dihydro-2H-pyridine-1-carboxylate] | – | EC50 [1]: 124 nM |
| CC1CN(C(=O)OC(C)(C)C)CC=C1c1cnc(Cn2ccc3c(F)c(S(C)(=O)=O)c(F)cc32)cn1 (centres unmarked) [Example 19, tert-Butyl 4-[5-(4,6-difluoro-5-methanesulfonylindol-1-ylmethyl)pyrazin-2-yl]-3-methyl-3,6-dihydro-2H-pyridine-1-carboxylate] | 82.8 | – |
| CC(C)(C)OC(=O)N1CC=C(c2cnc(Cn3ccc4cc(S(C)(=O)=O)c(F)c(F)c43)cn2)CC1 [Example 20, tert-Butyl 4-[5-(6,7-difluoro-5-methanesulfonylindol-1-ylmethyl)pyrazin-2-yl]-3,6-dihydro-2H-pyridine-1-carboxylate] | 21.9 | GPR119 agonist effect: excellent GPR119 agonist effect |
| CC1CN(C(=O)OC(C)(C)C)CC=C1c1cnc(Cn2ccc3cc(S(C)(=O)=O)c(F)c(F)c32)cn1 (centres unmarked) [Example 21, tert-Butyl 4-[5-(6,7-difluoro-5-methanesulfonylindol-1-ylmethyl)pyrazin-2-yl]-3-methyl-3,6-dihydro-2H-pyridine-1-carboxylate] | 21.4 | GPR119 agonist effect: excellent GPR119 agonist effect |
| CC1CN(C(=O)OC(C)(C)C)CC=C1c1cnc(COc2ccc(S(C)(=O)=O)c(F)c2F)nc1 (centres unmarked) [Example 24, tert-Butyl 4-[2-(2,3-difluoro-4-methanesulfonylphenoxymethyl)pyrimidin-5-yl]-3-methyl-3,6-dihydro-2H-pyridine-1-carboxylate] | – | EC50 [1]: 111 nM |
| CC(C)(C)OC(=O)N1CCC(c2cnc(Cn3ccc4cc(S(C)(=O)=O)cc(F)c43)cn2)CC1 [Example 28, tert-Butyl 4-[5-(7-fluoro-5-methanesulfonylindol-1-ylmethyl)pyrazin-2-yl]piperidine-1-carboxylate] | 7.6 | GPR119 agonist effect: excellent GPR119 agonist effect |
| CC(C)OC(=O)N1CC=C(c2cnc(Cn3ccc4cc(S(C)(=O)=O)c(F)c(F)c43)cn2)C(C)C1 (centres unmarked) [Example 29, Isopropyl 4-[5-(6,7-difluoro-5-methanesulfonylindol-1-ylmethyl)pyrazin-2-yl]-3-methyl-3,6-dihydro-2H-pyridine-1-carboxylate] | 35.7 | – |
| CC(C)OC(=O)N1CC=C(c2cnc(Cn3ccc4c(F)c(S(C)(=O)=O)c(F)cc43)cn2)C(C)C1 (centres unmarked) [Example 30, Isopropyl 4-[5-(4,6-difluoro-5-methanesulfonylindol-1-ylmethyl)pyrazin-2-yl]-3-methyl-3,6-dihydro-2H-pyridine-1-carboxylate] | – | EC50 [2]: 137 nM |
| CC(C)(C)OC(=O)N1CCC(c2cnc(Cn3ccc4cc(-n5cnnn5)cc(F)c43)cn2)CC1 [Example 34, tert-Butyl 4-[5-[7-fluoro-5-(tetrazol-1-yl)indol-1-ylmethyl]pyrazin-2-yl]piperidine-1-carboxylate] | 2.9 | GPR119 agonist effect: excellent GPR119 agonist effect |
| CC(C)OC(=O)N1CCC(c2cnc(Cn3ccc4cc(-n5cnnn5)cc(F)c43)cn2)CC1 [Example 38, Isopropyl 4-[5-[7-fluoro-5-(tetrazol-1-yl)indol-1-ylmethyl]pyrazin-2-yl]piperidine-1-carboxylate] | 16.5 | – |
| CCc1cnc(N2CCC(c3cnc(Cn4ccc5cc(-n6cnnn6)cc(F)c54)cn3)CC2)nc1 [Example 42, 5-Ethyl-2-[4-[5-[7-fluoro-5-(tetrazol-1-yl)indol-1-ylmethyl]pyrazin-2-yl]piperidin-1-yl]pyrimidine] | – | EC50 [2]: 3.1 nM; GPR119 agonist effect: excellent GPR119 agonist effect |
| CC(C)(C)OC(=O)N1CCC(c2cnc(Cn3ccc4cc(S(C)(=O)=O)cnc43)nc2)CC1 [Example 46, tert-Butyl 4-[2-(5-methanesulfonyl-1H-pyrrolo[2,3-b]pyridin-1-ylmethyl)pyrimidin-5-yl]piperidine-1-carboxylate] | 95 | – |
| CC(C)(C)OC(=O)N1CCC(c2cnc(Cn3ccc4cc(-n5cnnn5)cc(F)c43)nc2)CC1 [Example 49, tert-Butyl 4-[2-[7-fluoro-5-(tetrazol-1-yl)indol-1-ylmethyl]pyrimidin-5-yl]piperidine-1-carboxylate] | 30.1 | – |

Reference: US20190192510A1, “GPR119 AGONIST” (NIPPON CHEMIPHAR CO., LTD., priority 2010, published 2019)
